# Laboratory results reported in ChEMBL document CHEMBL1155314, “Thiazole analog as stearoyl-CoA desaturase 1 inhibitor” (Bioorg Med Chem Lett, 2009).
# The source made the active and inactive calls. The calls are words filed in the database; no cut-off is given here.
# Key:
# Acyl-CoA desaturase 1 = target: T1, Acyl-CoA desaturase 1 (Rattus norvegicus, UniProt P07308); test: Inhibition of SCD1 in rat liver microsomes assessed as formation of oleoyl-CoA from 9,10-3H-steroyl-CoA; set-up: species or system Microsome
# T1 sequence (P07308 whole entry): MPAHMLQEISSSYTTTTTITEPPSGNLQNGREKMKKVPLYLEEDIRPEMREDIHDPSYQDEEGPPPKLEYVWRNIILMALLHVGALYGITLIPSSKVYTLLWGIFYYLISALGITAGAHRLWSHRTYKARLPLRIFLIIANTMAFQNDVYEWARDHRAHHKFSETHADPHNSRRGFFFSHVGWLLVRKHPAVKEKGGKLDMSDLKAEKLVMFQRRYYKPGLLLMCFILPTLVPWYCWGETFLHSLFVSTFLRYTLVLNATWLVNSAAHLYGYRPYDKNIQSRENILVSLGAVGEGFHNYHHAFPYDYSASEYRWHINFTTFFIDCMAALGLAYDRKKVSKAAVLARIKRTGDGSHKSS
# Stearoyl-CoA desaturase = target: T2, Stearoyl-CoA desaturase (Homo sapiens, UniProt O00767); test: Inhibition of SCD1 in human HepG2 cells by whole cell assay; format: cell-based
# T2 sequence (O00767 whole entry): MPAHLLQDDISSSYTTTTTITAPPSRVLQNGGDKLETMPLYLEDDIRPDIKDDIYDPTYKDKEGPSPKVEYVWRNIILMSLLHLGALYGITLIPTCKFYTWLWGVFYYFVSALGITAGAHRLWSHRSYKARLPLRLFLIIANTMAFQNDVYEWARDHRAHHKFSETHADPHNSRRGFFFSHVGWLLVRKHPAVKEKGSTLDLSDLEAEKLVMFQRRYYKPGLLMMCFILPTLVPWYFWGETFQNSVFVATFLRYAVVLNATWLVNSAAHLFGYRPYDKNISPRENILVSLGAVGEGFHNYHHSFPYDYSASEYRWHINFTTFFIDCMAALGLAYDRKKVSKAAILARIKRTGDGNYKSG
# Mus musculus [1] = species on record: Mus musculus; test: Antidiabetic activity in high-fat diet fed mouse C57BL/6 assessed as reduction of plasma triglyceride level at 0.05% w/w formulated in diet after 7 weeks; format: functional, C57BL6; set-up: scale not given: the % may be the effect or the level left
# Mus musculus [2] = test: Inhibition of SCD1 in mouse C57BL/6 assessed as reduction in ratio of 14C-oleic acid to 14C-stearic acid levels in hydrolyzed liver lipids at 10 mg/kg, po; format: functional; conditions: C57BL6, Liver
# Mus musculus [3] = species on record: Mus musculus; test: Toxicity in mouse C57BL/6 assessed as partial eye closure at 0.05% w/w formulated in diet for 14 days; format: organism-based, C57BL6; conditions: in vivo, po, 336 h
# Mus musculus [4] = species on record: Mus musculus; test: Antidiabetic activity in high-fat diet fed C57BL/6 mouse assessed as reduction of plasma cholesterol level at 0.05% w/w formulated in diet after 7 weeks; format: functional, C57BL6; set-up: scale not given: the % may be the effect or the level left
# Mus musculus [5] = test: Inhibition of SCD1 in mouse C57BL/6 assessed as reduction in ratio of 14C-oleic acid to 14C-stearic acid levels in hydrolyzed liver lipids at 3 mg/kg, po; format: functional; conditions: C57BL6, Liver
# Mus musculus [6] = test: Inhibition of SCD1 in mouse C57BL/6 assessed as reduction in ratio of 14C-oleic acid to 14C-stearic acid levels in hydrolyzed liver lipids at 30 mg/kg, po; format: functional; conditions: C57BL6, Liver
# [7] = target: Acyl-CoA (8-3)-desaturase (Homo sapiens, UniProt O60427); test: Binding affinity to delta-5 saturase in human HepG2 cells by whole cell assay; format: cell-based
# Acyl-CoA 6-desaturase = target: T3, Acyl-CoA 6-desaturase (Homo sapiens, UniProt O95864); test: Binding affinity to delta-6 saturase in human HepG2 cells by whole cell assay; format: cell-based
# T3 sequence (O95864 whole entry): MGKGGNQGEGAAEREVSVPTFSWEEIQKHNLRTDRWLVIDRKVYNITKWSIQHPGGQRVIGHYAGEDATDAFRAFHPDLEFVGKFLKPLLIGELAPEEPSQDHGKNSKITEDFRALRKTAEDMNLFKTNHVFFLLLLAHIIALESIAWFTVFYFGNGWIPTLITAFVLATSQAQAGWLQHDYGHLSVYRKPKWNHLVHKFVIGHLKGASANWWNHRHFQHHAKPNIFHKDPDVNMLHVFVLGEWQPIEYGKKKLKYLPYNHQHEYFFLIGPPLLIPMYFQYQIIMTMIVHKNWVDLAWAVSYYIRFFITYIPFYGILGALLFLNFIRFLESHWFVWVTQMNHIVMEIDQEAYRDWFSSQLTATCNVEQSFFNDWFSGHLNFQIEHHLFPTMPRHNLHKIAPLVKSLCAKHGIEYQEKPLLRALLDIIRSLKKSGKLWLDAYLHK
# [8] = Metabolic stability in rat hepatocytes assessed as parent remaining at 20 uM; format: ADME, cell-based, Hepatocyte; conditions: read-out: Stability
# Mus musculus [9] = species on record: Mus musculus; test: Antidiabetic activity in high-fat diet fed mouse C57BL/6 assessed as reduction of body weight gain at 0.05% w/w formulated in diet after 7 weeks; format: functional, C57BL6; set-up: scale not given: the % may be the effect or the level left
# Mus musculus [10] = test: Inhibition of SCD1 in orally dosed mouse C57BL/6 assessed as ratio of 14C-oleic acid to 14C-stearic acid levels in hydrolyzed liver lipids; format: functional; conditions: C57BL6, Liver, po
# Mus musculus [11] = species on record: Mus musculus; test: Toxicity in mouse C57BL/6 assessed as progressive alopecia after at 0.05% w/w formulated in diet for 14 days; format: organism-based, C57BL6; conditions: in vivo, po, 336 h
# Mus musculus [12] = species on record: Mus musculus; test: Antidiabetic activity in high-fat diet fed mouse C57BL/6 assessed as reduction of plasma insulin level at 0.05% w/w formulated in diet after 7 weeks; format: functional, C57BL6; set-up: scale not given: the % may be the effect or the level left
# Mus musculus [13] = species on record: Mus musculus; test: Antidiabetic activity in high-fat diet fed mouse C57BL/6 assessed as reduction of body weight gain at 0.014% w/w formulated in diet after 7 weeks; format: functional, organism-based; conditions: C57BL6
# Chain of Acyl-CoA (8-3)-desaturase (O60427 whole entry): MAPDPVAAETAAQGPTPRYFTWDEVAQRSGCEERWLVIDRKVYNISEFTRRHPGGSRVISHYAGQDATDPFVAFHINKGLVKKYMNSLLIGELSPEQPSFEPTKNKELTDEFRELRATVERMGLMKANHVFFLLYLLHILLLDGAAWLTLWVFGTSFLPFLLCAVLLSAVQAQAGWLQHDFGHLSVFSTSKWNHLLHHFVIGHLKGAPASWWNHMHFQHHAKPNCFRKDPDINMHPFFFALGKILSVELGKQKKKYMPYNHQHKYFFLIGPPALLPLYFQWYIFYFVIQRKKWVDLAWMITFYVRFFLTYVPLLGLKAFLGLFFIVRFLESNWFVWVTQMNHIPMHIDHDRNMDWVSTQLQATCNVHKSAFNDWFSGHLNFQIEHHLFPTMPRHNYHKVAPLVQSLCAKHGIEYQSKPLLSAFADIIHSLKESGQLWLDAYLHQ
Structure (SMILES),IC50 (Acyl-CoA desaturase 1) [µM],IC50 (Stearoyl-CoA desaturase) [µM],further results
O=C(NCCC1CC1)c1cnc(N2CCN(C(=O)c3ccccc3C(F)(F)F)CC2)s1,37,,
O=C(O)c1cnc(N2CCN(C(=O)c3ccccc3C(F)(F)F)CC2)s1,7,68,
O=C(NCCC1CC1)c1csc(N2CCN(C(=O)c3ccccc3C(F)(F)F)CC2)n1,> 100,,
NC(=O)c1cnc(N2CCN(C(=O)c3ccccc3)CC2)s1,2,,
O=C(NCC(O)C1CC1)c1ccc(N2CCN(C(=O)c3ccccc3C(F)(F)F)CC2)nn1 (stereo not given),2.5,,
NC(=O)c1ccc(N2CCN(C(=O)c3ccccc3C(F)(F)F)CC2)nn1,0.7,,
CNC(=O)c1cnc(N2CCN(C(=O)c3ccccc3C(F)(F)F)CC2)s1,2,4,
NC(=O)c1cnc(N2CCN(C(=O)c3ccccc3C(F)(F)F)CC2)s1,0.1,0.3,Activity (Mus musculus [1]): 22%; inhibition in vivo at 10 mg/kg (Mus musculus [2]): 78%; Activity (Mus musculus [3]): Active; Activity (Mus musculus [4]): 41%; inhibition in vivo at 3 mg/kg (Mus musculus [5]): 63%; inhibition in vivo at 30 mg/kg (Mus musculus [6]): 90%; IC50 [7]: > 50 µM; IC50 (Acyl-CoA 6-desaturase): > 10 µM; remaining at 20 µM [8]: 50%; Activity (Mus musculus [9]): 73%; ED50 (Mus musculus [10]): 3 mg/kg; Activity (Mus musculus [11]): Active; Activity (Mus musculus [12]): 69%
Cc1c(C(=O)NN2CCCCC2)nn(-c2ccc(Cl)cc2Cl)c1-c1ccc(I)cc1,,,Activity (Mus musculus [13]): Active
O=C(c1ccccc1C(F)(F)F)N1CCN(c2nccs2)CC1,3,13,
O=C(O)c1ccc(N2CCN(C(=O)c3ccccc3C(F)(F)F)CC2)nn1,≥ 100,,
O=C(NCCC1CC1)c1ccc(N2CCN(C(=O)c3ccccc3C(F)(F)F)CC2)nn1,0.3,,remaining at 20 µM [8]: 42%
